Tests used:
myeloperoxidase (MPO) [1] = target: T1, myeloperoxidase (MPO) (Homo sapiens (Human), UniProt P05164); assay: MPO peroxidation assay (Amplex Red assay); type: biochemical; conditions: potency range class
Description: MPO Peroxidation Assay (Amplex Red Assay) MPO peroxidation activity was measured in 100 mM KPi (pH 7.4) by utilizing the non-fluorescent reagent Amplex Red (Invitrogen Cat. #A12222) which can be oxidized to the highly fluorescent resorufin. Amplex Red is oxidized by the peroxidase action of MPO to resorufin. Reactions were carried out in 50 μL total volume by adding a 25 μL mixture of 200 pM myeloperoxidase and 40 nM H2O2(Sigma #349887) to 100 nL inhibitor in 100% DMSO in a 384 well Perkin Elmer Optiplate. Enzyme and compound were preincubated for ten minutes at room temperature. After the ten minute preincubation, 25 μL of an Amplex Red mixture containing 200 μM Amplex Red and 10 mM H2O2 was added to the plate. Kinetic determinations were carried out immediately on a Perkin Elmer Envision (15 minute kinetic read, Ex: 535 nm, Em: 590 nm). IC50 values were calculated by determining the slope of the linear portion of the kinetic trace (180-540 secs), and using that calculated slope to determine % inhibition occurring at each concentration of inhibitor using the following equation: [formula] where A=minimal Y value (activity level of inhibited sample), B=maximal Y value (activity level of uninhibited sample), C=Log IC50, D=Hill Slope, x=concentration of inhibitor. MPO Chlorination Assay (APF Assay)

myeloperoxidase (MPO) [2] = target: T1, myeloperoxidase (MPO); assay: MPO chlorination assay (APF assay); type: biochemical; conditions: potency range class
Description: [formula] where A=minimal Y value (activity level of inhibited sample), B=maximal Y value (activity level of uninhibited sample), C=Log IC50, D=Hill Slope, x=concentration of inhibitor. MPO Chlorination Assay (APF Assay) MPO chlorination activity was measured in 100 mM KPi (pH 7.4) by utilizing the non-fluorescent reagent Aminophenyl fluorescein (APF, Invitrogen Cat. #A36003). APF is cleaved by (—OCl) to yield the fluorescent compound fluorescein. Reactions were carried out in 50 μL total volume by adding a 25 μL mixture of 200 pM myeloperoxidase and 120 mM NaCl to 100 nL inhibitor in 100% DMSO in a 384 well, non-binding surface clear bottom plate (Corning #3655). Enzyme, inhibitor, and chloride were preincubated for ten minutes at room temperature. After the ten minute preincubation, 25 μL of an APF mixture containing […], 120 mM NaCl and 10 μM H2O2 was added to the plate using the internal dispensing system of a Hammatsu FDSS 6000. Kinetic determinations were carried out immediately on the FDSS 6000 (3 minute kinetic read, 1 read every second, ex: 485 nm, em: 535 nm). IC50 values for inhibitors were calculated by taking the slope of the linear portion of the kinetic measurement (20 seconds to ˜80-120 secs). IC50 values were calculated by determining the slope of the linear portion of the kinetic trace […], and using that calculated slope to determine % inhibition occurring at each concentration of inhibitor using the following equation: [formula] where A=minimal Y value (activity level of inhibited sample), B=maximal Y value (activity level of uninhibited sample), C=Log IC50, D=Hill Slope, x=concentration of inhibitor. EPX Bromination Assay

T1 sequence (P05164 49-745): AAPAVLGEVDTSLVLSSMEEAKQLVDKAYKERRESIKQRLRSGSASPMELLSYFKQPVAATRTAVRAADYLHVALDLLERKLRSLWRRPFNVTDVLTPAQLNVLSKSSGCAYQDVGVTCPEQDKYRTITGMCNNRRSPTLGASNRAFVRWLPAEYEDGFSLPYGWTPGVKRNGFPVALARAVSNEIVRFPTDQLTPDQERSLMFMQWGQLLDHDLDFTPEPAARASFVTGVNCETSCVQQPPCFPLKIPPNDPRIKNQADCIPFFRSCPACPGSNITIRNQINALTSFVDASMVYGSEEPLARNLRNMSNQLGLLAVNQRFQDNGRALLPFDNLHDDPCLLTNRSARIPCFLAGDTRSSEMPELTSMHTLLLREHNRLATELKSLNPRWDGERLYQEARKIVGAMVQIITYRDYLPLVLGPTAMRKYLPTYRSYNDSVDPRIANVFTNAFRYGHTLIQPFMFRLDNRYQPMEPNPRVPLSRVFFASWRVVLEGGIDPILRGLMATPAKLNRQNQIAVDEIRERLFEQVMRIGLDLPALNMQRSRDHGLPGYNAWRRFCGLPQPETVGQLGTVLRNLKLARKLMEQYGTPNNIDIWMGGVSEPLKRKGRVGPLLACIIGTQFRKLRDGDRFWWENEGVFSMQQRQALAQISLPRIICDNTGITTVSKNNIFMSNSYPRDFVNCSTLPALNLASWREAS

IC50 (myeloperoxidase (MPO) [1]) [nM] | IC50 (myeloperoxidase (MPO) [2]) [nM] | SMILES
1 to 100 | 101 to 999 | Nc1cc(Cc2cnn(Cc3ccc(CO)cc3)c2)c2nn[nH]c2n1 [Example 64, (4-((4-((5-Amino-3H-[1,2,3]triazolo[4,5-b]pyridin-7-yl)methyl)-1H-pyrazol-1-yl)methyl)phenyl)methanol]
101 to 999 | 101 to 999 | Nc1cc(Cc2cnn(CC3CCN(C(=O)OCc4ccccc4)CC3)c2)c2nn[nH]c2n1 [Example 65, Benzyl 4-((4-((5-amino-3H-[1,2,3]triazolo[4,5-b]pyridin-7-yl)methyl)-1H-pyrazol-1-yl)methyl)piperidine-1-carboxylate]
101 to 999 | 101 to 999 | Nc1cc(Cc2cnn(C3CCNC3)c2)c2nn[nH]c2n1 (centres unmarked) [Example 66, 7-((1-(Pyrrolidin-3-yl)-1H-pyrazol-4-yl)methyl)-3H-[1,2,3]triazolo[4,5-b]pyridin-5-amine]
1 to 100 | 1 to 100 | Nc1cc(Cc2cnn(Cc3cccc(Cc4ccccc4)c3)c2)c2nn[nH]c2n1 [Example 67, 7-((1-(3-Benzylbenzyl)-1H-pyrazol-4-yl)methyl)-3H-[1,2,3]triazolo[4,5-b]pyridin-5-amine]
1 to 100 | 101 to 999 | Nc1cc(Cc2cnn(Cc3ccc4cc(O)ccc4c3)c2)c2nn[nH]c2n1 [Example 68, 6-((4-((5-Amino-3H-[1,2,3]triazolo[4,5-b]pyridin-7-yl)methyl)-1H-pyrazol-1-yl)methyl)naphthalen-2-ol]
101 to 999 | 1 to 100 | CN(C)CCOc1ccc2cc(Cn3cc(Cc4cc(N)nc5[nH]nnc45)cn3)ccc2c1 [Example 69, 7-((1-((6-(2-(Dimethylamino)ethoxy)naphthalen-2-yl)methyl)-1H-pyrazol-4-yl)methyl)-3H-[1,2,3]triazolo[4,5-b]pyridin-5-amine]
101 to 999 | 101 to 999 | Cc1cc(Cc2cc(N)nc3[nH]nnc23)no1 [Example 71, 7-[(5-Methyl-1,2-oxazol-3-yl)methyl]-3H-[1,2,3]triazolo[4,5-b]pyridin-5-amine]
1 to 100 | 101 to 999 | CN(C)CCNC(=O)c1ccc(Cn2cc(Cc3cc(N)nc4[nH]nnc34)cn2)cc1 [Example 72, 4-((4-((5-Amino-3H-[1,2,3]triazolo[4,5-b]pyridin-7-yl)methyl)-1H-pyrazol-1-yl)methyl)-N-(2-(dimethylamino)ethyl)benzamide]
1 to 100 | 101 to 999 | Nc1cc(Cc2cnn(Cc3ccc(C(=O)NCc4ncc[nH]4)cc3)c2)c2nn[nH]c2n1 [Example 74, N-((1H-Imidazol-2-yl)methyl)-4-((4-((5-amino-3H-[1,2,3]triazolo[4,5-b]pyridin-7-yl)methyl)-H-pyrazol-1-yl)methyl)benzamide]
101 to 999 | 101 to 999 | Nc1cc(Cc2cnn(Cc3ccc(C(=O)NCCN4CCOCC4)cc3)c2)c2nn[nH]c2n1 [Example 75, 4-{[4-({5-Amino-3H-[1,2,3]triazolo[4,5-b]pyridin-7-yl}methyl)-1H-pyrazol-1-yl]methyl}-N-[2-(morpholin-4-yl)ethyl]benzamide]
1 to 100 | 101 to 999 | Nc1cc(Cc2cnn(Cc3ccc(C(=O)NCCO)cc3)c2)c2nn[nH]c2n1 [Example 76, 4-{[4-({5-Amino-3H-[1,2,3]triazolo[4,5-b]pyridin-7-yl}methyl)-1H-pyrazol-1-yl]methyl}-N-(2-hydroxyethyl)benzamide]
1 to 100 | 101 to 999 | CN(C)CCN(C)C(=O)c1ccc(Cn2cc(Cc3cc(N)nc4[nH]nnc34)cn2)cc1 [Example 77, 4-{[4-({5-Amino-3H-[1,2,3]triazolo[4,5-b]pyridin-7-yl}methyl)-1H-pyrazol-1-yl]methyl}-N-[2-(dimethylamino)ethyl]-N-methylbenzamide]
1 to 100 | 101 to 999 | Nc1cc(Cc2cnn(Cc3ccc(C(=O)NCc4ccn[nH]4)cc3)c2)c2nn[nH]c2n1 [Example 78, 4-{[4-({5-Amino-3H-[1,2,3]triazolo[4,5-b]pyridin-7-yl}methyl)-1H-pyrazol-1-yl]methyl}-N-(1H-pyrazol-5-ylmethyl)benzamide]
1 to 100 | 101 to 999 | Nc1cc(Cc2cnn(Cc3ccc(C(=O)NCc4cn[nH]c4)cc3)c2)c2nn[nH]c2n1 [Example 79, 4-{[4-({5-Amino-3H-[1,2,3]triazolo[4,5-b]pyridin-7-yl}methyl)-1H-pyrazol-1-yl]methyl}-N-(1H-pyrazol-4-ylmethyl)benzamide]
1 to 100 | 101 to 999 | Nc1cc(Cc2cnn(Cc3ccc(C(=O)NCc4ccccn4)cc3)c2)c2nn[nH]c2n1 [Example 80, 4-{[4-({5-Amino-3H-[1,2,3]triazolo[4,5-b]pyridin-7-yl}methyl)-1H-pyrazol-1-yl]methyl}-N-(pyridin-2-ylmethyl)benzamide]
1 to 100 | 101 to 999 | Nc1cc(Cc2cnn(Cc3ccc(C(=O)NCc4ncn[nH]4)cc3)c2)c2nn[nH]c2n1 [Example 81, 4-{[4-({5-Amino-3H-[1,2,3]triazolo[4,5-b]pyridin-7-yl}methyl)-1H-pyrazol-1-yl]methyl}-N-(1H-1,2,4-triazol-5-ylmethyl)benzamide]
1 to 100 | 101 to 999 | CN(Cc1ncc[nH]1)C(=O)c1ccc(Cn2cc(Cc3cc(N)nc4[nH]nnc34)cn2)cc1 [Example 82, 4-{[4-({5-Amino-3H-[1,2,3]triazolo[4,5-b]pyridin-7-yl}methyl)-1H-pyrazol-1-yl]methyl}-N-(1H-imidazol-2-ylmethyl)-N-methylbenzamide]
1 to 100 | 101 to 999 | Nc1cc(Cc2cnn(Cc3ccc(C(=O)NCCc4cnc[nH]4)cc3)c2)c2nn[nH]c2n1 [Example 83, 4-{[4-({5-Amino-3H-[1,2,3]triazolo[4,5-b]pyridin-7-yl}methyl)-1H-pyrazol-1-yl]methyl}-N-[2-(1H-imidazol-4-yl)ethyl]benzamide]
101 to 999 | 101 to 999 | Nc1cc(Cc2cnn(Cc3ccc(C(=O)N4CCC(O)C4)cc3)c2)c2nn[nH]c2n1 (centres unmarked) [Example 84, 1-(4-{[4-({5-Amino-3H-[1,2,3]triazolo[4,5-b]pyridin-7-yl}methyl)-1H-pyrazol-1-yl]methyl}benzoyl)pyrrolidin-3-ol]
1 to 100 | 101 to 999 | CN1CCN(C(=O)c2ccc(Cn3cc(Cc4cc(N)nc5[nH]nnc45)cn3)cc2)CC1 [Example 85, 7-[(1-{[4-(4-Methylpiperazine-1-carbonyl)phenyl]methyl}-1H-pyrazol-4-yl)methyl]-3H-[1,2,3]triazolo[4,5-b]pyridin-5-amine]
1 to 100 | 101 to 999 | Nc1cc(Cc2cnn(Cc3ccc(C(=O)NCc4ccncc4)cc3)c2)c2nn[nH]c2n1 [Example 86, 4-{[4-({5-Amino-3H-[1,2,3]triazolo[4,5-b]pyridin-7-yl}methyl)-1H-pyrazol-1-yl]methyl}-N-(pyridin-4-ylmethyl)benzamide]
1 to 100 | 101 to 999 | CC(CO)NC(=O)c1ccc(Cn2cc(Cc3cc(N)nc4[nH]nnc34)cn2)cc1 (centres unmarked) [Example 87, 4-{[4-({5-Amino-3H-[1,2,3]triazolo[4,5-b]pyridin-7-yl}methyl)-1H-pyrazol-1-yl]methyl}-N-(1-hydroxypropan-2-yl)benzamide]
1 to 100 | 101 to 999 | CCCNC(=O)c1ccc(Cn2cc(Cc3cc(N)nc4[nH]nnc34)cn2)cc1 [Example 88, 4-{[4-({5-Amino-3H-[1,2,3]triazolo[4,5-b]pyridin-7-yl}methyl)-1H-pyrazol-1-yl]methyl}-N-propylbenzamide]
1 to 100 | 101 to 999 | CN(C)CCCNC(=O)c1ccc(Cn2cc(Cc3cc(N)nc4[nH]nnc34)cn2)cc1 [Example 89, 4-{[4-({5-Amino-3H-[1,2,3]triazolo[4,5-b]pyridin-7-yl}methyl)-1H-pyrazol-1-yl]methyl}-N-[3-(dimethylamino)propyl]benzamide]
1 to 100 | 101 to 999 | NC(=O)CNC(=O)c1ccc(Cn2cc(Cc3cc(N)nc4[nH]nnc34)cn2)cc1 [Example 90, 2-[(4-{[4-({5-Amino-3H-[1,2,3]triazolo[4,5-b]pyridin-7-yl}methyl)-1H-pyrazol-1-yl]methyl}phenyl)formamido]acetamide]

From patent US10407422B2, “Triazolopyridine inhibitors of myeloperoxidase” (priority 2015, dated 2019)
